Measured values taken from ChEMBL document CHEMBL2417444, “Synthesis and study of 1-ethyl-3-carbohydrazide and 3-[1-oxo-2-hydrazino-3-{p-toluenesulfon}]quinolone derivatives against bacterial infections” (2013).
Values after ≈ are worked out from the molar mass of the structure shown.

How the values were obtained:
Pseudomonas aeruginosa = experiment: Antibacterial activity against Pseudomonas aeruginosa by disc diffusion method; assay type: functional
Salmonella typhi [1] = experiment: Ratio of norfloxacin MIC to compound MIC against Salmonella typhi; assay type: functional, Salmonella enterica subsp. enterica serovar Typhi
Staphylococcus aureus = experiment: Antibacterial activity against Staphylococcus aureus by disc diffusion method; assay type: functional
Salmonella typhi [2] = experiment: Antibacterial activity against Salmonella typhi by disc diffusion method; assay type: functional, Salmonella enterica subsp. enterica serovar Typhi; conditions: Salmonella enterica
Escherichia coli = experiment: Antibacterial activity against enterotoxigenic Escherichia coli by disc diffusion method; assay type: functional

Compound	MIC (Pseudomonas aeruginosa)	Ratio (Salmonella typhi [1])	MIC (Staphylococcus aureus)	MIC (Salmonella typhi [2])	MIC (Escherichia coli)
CCn1cc(C(=O)NNS(=O)(=O)c2ccc(C)cc2)c(=O)c2ccccc21	0.0625 µg/mL (≈ 0.162 µM)	4	0.0625 µg/mL (≈ 0.162 µM)	0.0625 µg/mL (≈ 0.162 µM)	0.125 µg/mL (≈ 0.324 µM)
CCn1cc(C(=O)NNS(=O)(=O)c2ccc(C)cc2)c(=O)c2cc(F)ccc21	0.0625 µg/mL (≈ 0.155 µM)	4	0.0625 µg/mL (≈ 0.155 µM)	0.0625 µg/mL (≈ 0.155 µM)	0.0625 µg/mL (≈ 0.155 µM)
CCn1cc(C(=O)NNS(=O)(=O)c2ccc(C)cc2)c(=O)c2cc(Cl)ccc21	0.0625 µg/mL (≈ 0.149 µM)	4	0.0625 µg/mL (≈ 0.149 µM)	0.0625 µg/mL (≈ 0.149 µM)	0.0625 µg/mL (≈ 0.149 µM)
CCn1cc(C(=O)NNS(=O)(=O)c2ccc(C)cc2)c(=O)c2ccc(Cl)cc21	0.0625 µg/mL (≈ 0.149 µM)	2	0.0625 µg/mL (≈ 0.149 µM)	0.125 µg/mL (≈ 0.298 µM)	0.0625 µg/mL (≈ 0.149 µM)
CCn1cc(C(=O)NNS(=O)(=O)c2ccc(C)cc2)c(=O)c2cc(F)c(Cl)cc21	0.0625 µg/mL (≈ 0.143 µM)	4	0.0625 µg/mL (≈ 0.143 µM)	0.0625 µg/mL (≈ 0.143 µM)	0.0625 µg/mL (≈ 0.143 µM)
CCn1cc(C(=O)NN)c(=O)c2ccccc21	0.0625 µg/mL (≈ 0.27 µM)	4	0.0625 µg/mL (≈ 0.27 µM)	0.0625 µg/mL (≈ 0.27 µM)	0.0625 µg/mL (≈ 0.27 µM)
CCn1cc(C(=O)NN)c(=O)c2cc(F)ccc21	0.0625 µg/mL (≈ 0.251 µM)	4	0.0625 µg/mL (≈ 0.251 µM)	0.0625 µg/mL (≈ 0.251 µM)	0.125 µg/mL (≈ 0.502 µM)
CCn1cc(C(=O)NN)c(=O)c2cc(Cl)ccc21	0.0625 µg/mL (≈ 0.235 µM)	4	0.0625 µg/mL (≈ 0.235 µM)	0.0625 µg/mL (≈ 0.235 µM)	0.25 µg/mL (≈ 0.941 µM)
CCn1cc(C(=O)NN)c(=O)c2ccc(Cl)cc21	0.0625 µg/mL (≈ 0.235 µM)	4	0.0625 µg/mL (≈ 0.235 µM)	0.0625 µg/mL (≈ 0.235 µM)	0.0625 µg/mL (≈ 0.235 µM)
CCn1cc(C(=O)NN)c(=O)c2cc(F)c(Cl)cc21	0.0625 µg/mL (≈ 0.22 µM)	4	0.0625 µg/mL (≈ 0.22 µM)	0.0625 µg/mL (≈ 0.22 µM)	0.0625 µg/mL (≈ 0.22 µM)
O=C(O)c1cn(C2CC2)c2cc(N3CCNCC3)c(F)cc2c1=O [CIPROFLOXACIN]	0.0625 µg/mL (≈ 0.189 µM)		0.0625 µg/mL (≈ 0.189 µM)	0.0625 µg/mL (≈ 0.189 µM)	0.0625 µg/mL (≈ 0.189 µM)
CCn1cc(C(=O)O)c(=O)c2cc(F)c(N3CCNCC3)cc21 [NORFLOXACIN]	0.0625 µg/mL (≈ 0.196 µM)		0.0625 µg/mL (≈ 0.196 µM)	0.25 µg/mL (≈ 0.783 µM)	0.0625 µg/mL (≈ 0.196 µM)
